Results from patent publication US20040176471A1, “Novel chalcone derivatives and pharmaceutical compositions comprising the same” (KAOHSIUNG MEDICAL UNIVERSITY, priority 2003, published 2004).
Read-outs that look alike come from different tables or passages of the source.

Legend:
rat neutrophils [1] = assay: Neutrophil degranulation stimulated with fMLP/CB (release of β-glucuronidase and lysozyme); format: cell-based; conditions: for IC50: Neutrophil, fMLP (1 μM)/CB (5 μg/mL)
Procedure: Blood was withdrawn from rat (Sprague-Dawley, 250-300 g, 10-12 weeks old) and mixed with EDTA. […] Cell suspension was preincubated at 37° C. with DMSO or drugs for 10 min, and then challenged with fMLP (1 μM)/CB (5 μg/mL). The final volume of DMSO in the reaction mixture was≦0.5%. […] After treatment of the cell suspension with Triton X-100, the total content of lysozyme and β-glucuronidase was measured and the percentage release was calculated. In the experiment, Trifluoperazine was used as a positive control.

[2] = system: rat peritoneal mast cells; assay: Mast cell degranulation stimulated with compound 48/80 (release of β-glucuronidase and histamine); format: cell-based; conditions: for IC50: Mast cell, compound 48/80 (10 μg/mL); for % of inhibition of Histamine release at the highest concentration / % of inhibition of β-Glucuronidase release at the highest concentration: compound 48/80, at the highest concentration (bound given in the source)
Procedure: Heparinized Tyrode's solution was injected into the peritoneal cavity of exsanguinated rat (Sprague-Dawley, 250-300 g, 10-12 weeks old). […] Cell pellets were washed and suspended in Tyrode's solution with 0.1% BSA to 1×10^6 cells/mL. Cell suspension was then preincubated at 37° C. with DMSO or a tested compound for 5 min. The final volume of DMSO in the reaction mixture was≦0.5%. […] After treatment of the cell suspension with Triton X-100, the total content of β-glucuronidase and histamine was measured, and the percentage release was calculated. In the experiment, Mepacrine was used as a positive control.

N9 cells = assay: NO production (nitrite accumulation, Griess reaction) in LPS/IFN-γ-stimulated microglial cells; format: cell-based, murine; conditions: for IC50: LPS (10 ng/mL)/IFN-γ (10 unit/mL), 24 hrs, read-out: IC50, accumulation of NO2− in culture media, N9 cells; for % of inhibition of NO2− accumulation at the highest concentration, N9 cells: LPS/IFN-γ, at the highest concentration (bound given in the source)
Procedure: Cells of murine microglial cell line N9 (kindly provided by Dr. P. Ricciardi-Castagnoli, CNR Cellular and Molecular Pharmacology Center, Italy) (S. B. Corradin et al. (1993), Glia, 7, 255-262) were suspended in Iscove's Modified Dulbecco's medium containing 5% heat-inactivated FCS and antibiotics and then plated into 96-well tissue-culture plates at 8×10^4 cells/200 μL per well. The cells were treated with DMSO or a tested compound at 37° C. for 1 hr, followed by stimulation with LPS (10 ng/mL)/IFN-γ (10 unit/mL) for 24 hrs. Thereafter, the medium in each well was collected and stored at −70° C. until use. The final volume of DMSO in the reaction mixture was<0.5%
(§1) The production of NO in cell medium was determined by measuring the content of nitrite based on the Griess reaction (L. Mingghetti et at (1997), Glia, 19, 152-160). Briefly, 40 μL of 5 mM sulfanilamide, 10 μL of 2 M HCl, and 20 μL of 40 mM naphthylethylenediamine were added into 150 μL culture medium in sequence. After 10 min of incubation at room temperature, absorbance was measured at 550 nm in a microplate reader. A standard nitrite curve was generated in the same fashion, using NaNO2.

RAW 264.7 cells = assay: NO production (nitrite accumulation, Griess reaction) in LPS-stimulated macrophage-like cells; format: cell-based, mouse; conditions: for suppression of LPS-induced NO production in RAW 264.7 cells (in words) / IC50: LPS (1 μg/mL), 24 hrs; for IC50: read-out: IC50, accumulation of NO2− in culture media, RAW 264.7 cells; for % of inhibition of NO2− accumulation at the highest concentration, RAW 264.7 cells: LPS, at the highest concentration (bound given in the source)
Procedure: RAW 264.7 mouse macrophage-like cell line (American Type Culture Collection (ATCC), PO Box 1549, Manassas, Va. 20108 USA) was plated in 96 well tissue-culture plates in Dulbecco's Modified Eagle Medium (DMEM) supplemented with 10% fetal calf serum (FCS), 100 units/ml of penicillin and streptomycin at 2×10^5 cells/200 μL per well. Cells were allowed to adhere overnight. The cells were treated with DMSO or a tested compound at 37° C. for 1 hr. followed by stimulation with 1 μg/mL of LPS (Escherichia coli, serotype 0111:B4) for 24 hrs. Thereafter, the medium in each well was collected and stored at −70° C. until use. The final volume of DMSO in the reaction mixture was≦0.5%.
as §1

rat neutrophils [3] = assay: Superoxide anion generation in neutrophils stimulated with fMLP/CB or PMA (cytochrome c reduction); format: cell-based; conditions: for inhibition / IC50: Neutrophil; for inhibition / IC50 / % of inhibition of superoxide anion generation at the highest concentration, fMLP/CB: rat neutrophils; for inhibition / % of inhibition of superoxide anion generation at the highest concentration, fMLP/CB: at the highest concentration (bound given in the source)
Procedure: Superoxide anion generation was measured in terms of superoxide dismutase-inhibitable cytochrome c reduction (M. Market et al. (1984), Methods Enzymol., 105, 358). Neutrophil suspension was preincubated with DMSO or a tested compound for 3 min, and then superoxide dismutase or Hank's balanced salt solution (HBSS) was added into the blank and test wells, respectively. The final volume of DMSO in the reaction mixture was≦0.5%. After addition of cytochrome c, reaction was initiated by challenge with formyl-Met-Leu-Phe (fMLP) (0.3 μM)/cytochalasin B (CB) (5 μg/mL) or phorbol myristate acetate (PMA) (3 nM). Thirty minutes later, the reaction was terminated by centrifugation and the absorbance changes of supernatant were monitored at 550 nm in a microplate reader. In the experiment, Trifluoperazine was used as a positive control

[4] = rat neutrophils, read-out: IC50, release of Lysozyme
[5] = rat neutrophils, read-out: IC50, release of β-Glucuronidase
[6] = read-out: IG50, release of Histamine
[7] = read-out: IG50, release of β-Glucuronidase
[8] = PMA (3 nM), read-out: IC50, superoxide anion generation, PMA
[9] = fMLP (0.3 μM)/CB (5 μg/mL), read-out: IC50, superoxide anion generation, fMLP/CB
[10] = rat neutrophils, fMLP/CB, at the highest concentration (bound given in the source)

| SMILES | melting point | IC50 (rat neutrophils [1]; [4]) | IC50 (rat neutrophils [1]; [5]) | IC50 [2, 6] | IC50 [2, 7] | % of inhibition of Histamine release at the highest concentration [2] | % of inhibition of β-Glucuronidase release at the highest concentration [2] | IC50 (N9 cells; Mus musculus, N9) | IC50 (RAW 264.7 cells; Mus musculus, RAW264.7) | inhibition (rat neutrophils [3]; PMA (3 nM)) | IC50 (rat neutrophils [3]; [8]) | IC50 (rat neutrophils [3]; [9]) | % of inhibition of NO2− accumulation at the highest concentration, N9 cells (N9 cells) | % of inhibition of NO2− accumulation at the highest concentration, RAW 264.7 cells (RAW 264.7 cells) | further results |
| --- | --- | --- | --- | --- | --- | --- | --- | --- | --- | --- | --- | --- | --- | --- | --- |
| COc1ccc(OC)c(C(=O)/C=C/c2ccc(O)cc2)c1 [Compound 1, 2′,5′-Dimethoxy-4-hydroxychalcone] | 127 to 128 °C | 28.3 ± 1.9 µM | 20.6 ± 2 µM | > 30 µM | > 30 µM | 10.0 ± 5.1% | 8.3 ± 2.3% | 17.8 ± 0.2 µM | 14.6 ± 0.1 µM | 36.3% | > 30 µM | 19.5 ± 3.5 µM | – | – | suppression of LPS-induced NO production in RAW 264.7 cells (in words) (RAW 264.7 cells): suppressed |
| COc1ccc(OC)c(C(=O)/C=C/c2ccc(Br)cc2)c1 [Compound 2, 4-Bromo-2′,5′-dimethoxychalcone] | 85 to 87 °C | 5.7 ± 0.3 µM | 5.6 ± 0.3 µM | > 30 µM | > 30 µM | 21.7 ± 1.5% | 28.6 ± 3.4% | > 10 µM | > 10 µM | 22.9% | > 30 µM | 8 ± 2.4 µM | −5.6 ± 1.1% | 8.9 ± 4.0% | – |
| COc1ccc(OC)c(C(=O)/C=C/c2ccc(Cl)c(Cl)c2)c1 [Compound 3, 3,4Dichloro-2′,5′-dimethoxychalcone] | 121 to 123 °C | 5.1 ± 0.1 µM | 5 ± 0.3 µM | > 30 µM | > 30 µM | 35.2 ± 1.0% | 44.3 ± 2.3% | > 3 µM | > 3 µM | -27.1% | > 30 µM | 12.9 ± 0.4 µM | 4.3 ± 3.1% | 2.0 ± 3.1% | – |
| O=C(/C=C/c1ccc(Cl)c(Cl)c1)c1cc(O)ccc1O [Compound 4, 3,4-Dichloro-2′,5′-dihydroxychalcone] | 171 to 174 °C | – | – | – | – | – | – | > 1 µM | > 1 µM | 21.9% | > 10 µM | 0.6 ± 0.2 µM | −10.3 ± 1.5% | −4.9 ± 1.9% | inhibitory effect on fMLP/CB-induced superoxide anion generation (in words) (rat neutrophils [3]): more potent than the positive control, trifluoperazine |
| CCOc1ccc(OCC)c(C(=O)/C=C/c2ccc(Cl)c(Cl)c2)c1 [Compound 5, 3,4-Dichloro-2′,5′-diethoxychalcone] | 152 to 153 °C | > 30 µM | > 30 µM | > 30 µM | > 30 µM | 12.9 ± 7.9% | 5.5 ± 4.7% | 3.7 ± 0.1 µM | 4.9 ± 0.3 µM | 13.2% | > 30 µM | > 30 µM | – | – | inhibitory effect on neutrophil degranulation (in words) (rat neutrophils [1]; fMLP/CB): no significant inhibitory effects; % of inhibition of Lysozyme release at the highest concentration (rat neutrophils [1]; [10]): 27.1 ± 5.0%; % of inhibition of β-Glucuronidase release at the highest concentration (rat neutrophils [1]; [10]): 30.6 ± 4.1%; suppression of LPS-induced NO production in RAW 264.7 cells (in words) (RAW 264.7 cells): suppressed; inhibitory effect on fMLP/CB-induced superoxide anion generation (in words) (rat neutrophils [3]): not to have significant inhibitory effects; % of inhibition of superoxide anion generation at the highest concentration, fMLP/CB (rat neutrophils [3]): 32.4 ± 12.2% |
| O=C(/C=C/c1ccsc1)c1cc(O)ccc1O [Compound 7, 2′,5′-Dihydroxy-3-thienylchalcone] | 156 to 157 °C | – | – | – | – | – | – | > 3 µM | > 3 µM | 23.5% | > 1 µM | > 1 µM | 10.6 ± 8.2% | 9.7 ± 2.9% | % of inhibition of superoxide anion generation at the highest concentration, fMLP/CB (rat neutrophils [3]): 43.4 ± 6.1% |
| COC(=O)[C@@H](N)CCCNC(=N)N[N+](=O)[O-] [L-NAME, N^ω-nitro-L-arginine methyl ether, reference compound] | – | – | – | – | – | – | – | – | – | – | – | – | – | – | IC50 (N9 cells; positive control): 630 ± 10 µM; IC50 (RAW 264.7 cells; positive control): 510 ± 20 µM |
| CCN(CC)CCCC(C)Nc1c2ccc(Cl)cc2nc2ccc(OC)cc12 (stereo not shown) [Mepacrine, reference compound] | – | – | – | 48.5 ± 3.8 µM | 32.2 ± 3.6 µM | – | – | – | – | – | – | – | – | – | – |
| CN1CCN(CCCN2c3ccccc3Sc3ccc(C(F)(F)F)cc32)CC1 [Trifluoperazine, reference compound] | – | 18.3 ± 0.9 µM | 18.9 ± 2.1 µM | – | – | – | – | – | – | – | 9.7 ± 1.1 µM | 12.9 ± 1 µM | – | – | – |
